Results on one compound are retold here after US12404345B2, “Humanized antibodies against iRHOM2” (SCIRHOM GMBH, priority 2021, dated 2025).

This assay relates to PMA-induced release of endogenous HB-EGF from human PBMCs from healthy donors. The assay can be described thus: ELISA-based HB-EGF release assay, PMA-induced, PBMCs from healthy donors. The class given is cell-based. The following applies: PBMC, Batimastat 10 μM, PMA 25 ng/ml, 24 hours. As to the method:
In the following study, ELISA-based HB-EGF release assays were performed to analyze the inhibitory effects of the antibodies of the invention on PMA-induced release of endogenous HB-EGF from primary human material obtained from healthy donors using peripheral blood mononuclear cells (PBMCs).
In brief, on day 1, Nunc black MaxiSorp® 96-well plates (Thermo Fisher Scientific, USA) were coated overnight with 100 μl per well of mouse anti-human HB-EGF capture antibody (provided as part of the DuoSet ELISA kit) at 2 μg/ml TBS at 4° C. […]
After 4 times washing with 350 μl TBS-T (Carl Roth, Germany) per well on a 96-head plate washer (Tecan Group, Switzerland) and careful removal of all buffer traces after the fourth cycle, 100 μl streptavidin-AP (R&D Systems, USA) diluted 1:10,000 in TBS were added to each well and, again protected from direct light, plates were incubated at room temperature for 30 minutes. […] Using an infinite M1000 (Tecan Group, Switzerland) microplate reader, the fluorescence of each well was collected at an excitation wavelength of 435 nm and an emission wavelength of 555 nm.

The term inhibition denotes the share of the control response that was lost under treatment. Higher therefore signals a response far below the control. Turning to `CNC(=O)[C@H](Cc1ccccc1)NC(=O)[C@H](CC(C)C)[C@H](CSc1cccs1)C(=O)NO` [Batimastat], the inhibition at 10 µM stood at 100%.
